Patent US20180133283A1, “METHOD AND COMPOSITIONS FOR SYNCHRONIZING TIME OF INSEMINATION IN GILTS” (JBS UNITED ANIMAL HEALTH II LLC, priority 2012, published 2018)

How the values were obtained:
Type in all cases: in vivo, swine
gilts [1] = assay: Example 5: estrus observation; details: raw averages, PTK 2-07
Method: For post-treatment estrus detection, gilts were housed in individual pens. Boars were housed in separate rooms, and/or at least 12 m away and downwind. To elicit signs of estrus, a mature boar was walked slowly in the alley in front of the gilts' crates, exposing each test gilt to visual, auditory and olfactory signals from the boar for up to 5 minutes. In keeping with standard practice at commercial farms, while the boar was near the front of the gilt's crate, estrus was tested by an experienced person applying back pressure to the midsection of the gilt combined with side rubbing. Estrus was confirmed when a gilt stood rigidly to the back pressure, with no vocalization and with some indication of an ear reflex. Gilts were not exposed to boars during the first three days after withdrawal of MATRIX® (Day 0 to Day 2). Estrus detection was performed daily on all gilts from Day 3 to Day 7.

gilts [2] = assay: Example 1: ovulation monitoring by transrectal ultrasonography after 200 mcg triptorelin gel intravaginally at 96, 120 or 144 h after MATRIX withdrawal; details: raw averages, PTK 1-07 (rep 3), 200 mcg T
Method: (§1) All gilts were individually fed MATRIX® as a top-dress for 14 days at the recommended rate of 15 mg/gilt/day. Gilts were withdrawn from MATRIX® feeding (last top feed in the morning on Day 0) and allotted to treatments. Controls were treated with a 1.2% methylcellulose gel formulation without triptorelin at 96 hours following MATRIX® withdrawal (last top-dress). The remaining gilts received 200 mcg triptorelin, as the acetate, in a 1.2% methylcellulose gel formulation intravaginally at various times after MATRIX® withdrawal. The four treatments were: 1) vehicle gel (VG) treatment at 96 hours after MATRIX® withdrawal, 2) triptorelin gel (TG) treatment at 96 hours after MATRIX® withdrawal, 3) TG treatment at 120 hours after MATRIX® withdrawal and 4) TG treatment at 144 hours after MATRIX® withdrawal. All gilts were monitored for their estrous and ovulatory status as described below. Gilts included in replicate 1 were selected from terminal line commercial production gilts located in grow/finish barns. Sexual maturity, as indicated by one or more estrous periods, was not verified prior to the start of MATRIX® feeding. Gilts included in replicate 2 were selected from a maternal line gilt population. Sexual maturity was verified by at least one estrous period verified and recorded prior to starting MATRIX® feeding.
The ovulatory status of all gilts was monitored by transrectal ultrasonography. For replicate one, ovulation was monitored two times on Day 5, then three times a day from Day 6 to Day 8. For replicate two, ovulation was monitored three times a day from Day 5 to Day 8. An Aloka 500 ultrasound machine with a 7.5 MHz linear array transducer attached to a fixed-angle PVC stabilizing rod to facilitate insertion into the rectum was used for this purpose. The transducer and PVC rod were coated with a gynecological lubricant and gently inserted into the rectum until the ovaries were visualized, one at a time. The diameters of the three largest follicles were recorded (to the nearest 0.1 mm) at each scanning. A gilt was declared to have ovulated when the number of large follicles (≥6.5 mm) fell to less than 3.
(§2) A single 2 mL dose of triptorelin gel or vehicle gel was deposited within approximately 1-2 cm posterior to the cervix with a catheter similar to those used for artificial insemination. The dose was delivered using a standard multi-dose applicator attached to the catheter. A new disposable sheath, which surrounds the catheter, was used for each gilt.
Data were analyzed using the Mixed Models procedures of SAS. Models included main effects of time of treatment following the last feeding of MATRIX®, replicate, and treatment by replicate interaction. Differences between treatments were tested on least squares means estimates using the T test at P<0.05. Data for analysis were tested for assumptions of data normality.

serum LH = assay: Example 5: blood collection and serum LH analysis (LH surge); details: for Gilts, which displayed a LH surge: number of gilts
Method: A catheter was inserted non-surgically into the jugular vein (Kraeling et al. 1982) of a subpopulation of gilts in each treatment group (vehicle gel, n=8; 100 mcg triptorelin, n=6; 200 mcg triptorelin, n=7 and 400 mcg triptorelin, n=6). Ten mL blood samples were collected every 15 minutes for one hour prior to treatment, immediately following treatment (0) and at 0.5, 1, 2, 4, 6, 12, 18, 24, 36 and 48 hours after treatment. Blood samples were maintained at 4° C. until centrifuged at 800×g for 15 minutes within 12 hours of collection. The resulting serum was stored frozen until assayed for LH using validated procedures for pig serum (Kesner et al., 1987 and Kraeling et al., 1982). Onset, duration, and magnitude of the LH surge were analyzed. The LH data were analyzed with the General Linear Models procedure of SAS. Differences between treatments were tested on least squares means estimates using the T test at P<0.05. Onset of the LH surge is when serum LH concentration is greater than or equal to two standard deviations of the mean of the pre-treatment serum LH concentrations. Duration of the LH surge is the period between onset and when serum LH concentration is again less than or equal to two standard deviations of the mean of the pre-treatment serum LH concentrations. Magnitude of the LH surge is the maximum serum LH concentration reached during the LH surge.

gilts [3] = assay: Example 1: estrus observation (boar exposure, back pressure) after triptorelin gel; details: raw averages; PTK 1-07 (rep 3); 200 mcg T at 120 h
Method: as §1
For post-treatment estrus detection, gilts were housed in individual pens. […]

gilts [4] = assay: Example 5: ovulation monitoring by transrectal ultrasonography after 100, 200 or 400 mcg triptorelin gel at 120 h after MATRIX withdrawal; details: for Percentage ovulated by 48 hours: catheterized subpopulation; for % of Sows Ovulating: raw averages, PTK 2-07
Method: All gilts were individually fed MATRIX® as a top-dress for 14 or 15 days at the recommended rate of 15 mg/gilt/day. Gilts were withdrawn from MATRIX® feeding (last top-dress in the morning on Day 0) and allocated to each of the following treatments. Controls were vehicle gel treated (vehicle gel without triptorelin) at 120 (+/−2) hours following MATRIX® withdrawal (last top dress). The other gilts were given 100, 200 or 400 mcg triptorelin as the acetate in a methylcellulose gel formulation 120 (+/−2) hours following MATRIX® withdrawal. The four treatments were:
1. Vehicle gel (VG): vehicle gel without triptorelin at 120 (+/−2) hours after MATRIX® withdrawal.
2. TG 100: 100 mcg (2 mL 50 mcg/mL) triptorelin gel at 120 (+/−2) hours after MATRIX® withdrawal.
3. TG 200: 200 mcg (2 mL 100 mcg/mL) triptorelin gel at 120 (+/−2) hours after MATRIX® withdrawal.
4. TG 400: 400 mcg (2 mL 200 mcg/mL) triptorelin gel at 120 (+/−2) hours after MATRIX® withdrawal.
Ovulation was monitored twice on Day 5 (8 hours and 16 hours post-treatment) and every 8 hours on Day 6 and Day 7 or until ovulation was confirmed or 176 hours following last MATRIX® feeding. The ovulatory status of all gilts was monitored by transrectal ultrasonography. An Aloka 500 ultrasound machine is used for this purpose, with a 7.5 MHz linear array transducer attached to a fixed-angle PVC stabilizing rod to facilitate insertion into the rectum. The transducer and PVC rod are coated with a gynecological lubricant and gently inserted into the rectum until the ovaries can be visualized, one at a time. The diameters of the three largest follicles were recorded (to the nearest 0.1 mm) at each scanning. A gilt was declared to have ovulated when the number of large follicles 6.5 mm) fell to less than 3.
as §2

[5] = relative to time of triptorelin gel treatment, 200 mcg T

SMILES: CC(C)C[C@H](NC(=O)[C@@H](Cc1c[nH]c2ccccc12)NC(=O)[C@H](Cc1ccc(O)cc1)NC(=O)[C@H](CO)NC(=O)[C@H](Cc1c[nH]c2ccccc12)NC(=O)[C@H](Cc1c[nH]cn1)NC(=O)[C@@H]1CCC(=O)N1)C(=O)N[C@@H](CCCNC(=N)N)C(=O)N1CCC[C@H]1C(=O)NCC(N)=O [T, pGlu-His-Trp-Ser-Tyr-D-Trp-Leu-Arg-Pro-Gly-NH2]
- Estrous Expression (%) (gilts [1]; 100 mcg T at 120 h): 75.0%
- Estrous Expression (%) (gilts [1]; 200 mcg T at 120 h): 81.0%
- % of Sows Ovulating (gilts [2]; 128 h post-MATRIX, 8 h post-T): 0.0%
- % of Sows Ovulating (gilts [2]; 136 h post-MATRIX, 16 h post-T): 10.0%
- % of Sows Ovulating (gilts [2]; 144 h post-MATRIX, 24 h post-T): 30.0%
- % of Sows Ovulating (gilts [2]; 152 h post-MATRIX, 32 h post-T): 70.0%
- % of Sows Ovulating (gilts [2]; 160 h post-MATRIX, 40 h post-T): 80.0%
- % of Sows Ovulating (gilts [2]; 168 h post-MATRIX, 48 h post-T): 90.0%
- % of Sows Ovulating (gilts [2]; 176 h post-MATRIX, 56 h post-T): 100.0%
- Duration of LH surge (serum LH; 200 mcg T): 18
- Onset of LH surge (serum LH; LS mean ± SE, relative to time of triptorelin gel treatment, 100 mcg T): 4 ± 3
- Onset of LH surge (serum LH; LS mean ± SE, relative to time of triptorelin gel treatment, 400 mcg T): 4 ± 4
- Gilts, which displayed a LH surge (serum LH; 100 mcg T (n = 6)): 4
- Gilts, which displayed a LH surge (serum LH; 200 mcg T (n = 7)): 1
- Gilts, which displayed a LH surge (serum LH; 400 mcg T (n = 6)): 5
- Onset of LH surge (serum LH; [5]): 0.5
- Time of maximum LH conc. (serum LH; [5]): 4 h
- Estrous Expression (%) (gilts [3]): 100.0%
- Percentage ovulated by 48 hours (gilts [4]; 100 mcg T (n = 6)): 100%
- Percentage ovulated by 48 hours (gilts [4]; 200 mcg T (n = 7)): 100%
- Percentage ovulated by 48 hours (gilts [4]; 400 mcg T (n = 6)): 100%
- % of Sows Ovulating (gilts [4]; 100 mcg T, 128 h post-MATRIX, 8 h post-T): 0.0%
- % of Sows Ovulating (gilts [4]; 100 mcg T, 136 h post-MATRIX, 16 h post-T): 5.0%
- % of Sows Ovulating (gilts [4]; 100 mcg T, 144 h post-MATRIX, 24 h post-T): 20.0%
- % of Sows Ovulating (gilts [4]; 100 mcg T, 152 h post-MATRIX, 32 h post-T): 30.0%
- % of Sows Ovulating (gilts [4]; 100 mcg T, 160 h post-MATRIX, 40 h post-T): 60.0%
- % of Sows Ovulating (gilts [4]; 100 mcg T, 168 h post-MATRIX, 48 h post-T): 95.0%
- % of Sows Ovulating (gilts [4]; 100 mcg T, 176 h post-MATRIX, 56 h post-T): 100.0%
- % of Sows Ovulating (gilts [4]; 200 mcg T, 128 h post-MATRIX, 8 h post-T): 0.0%
- % of Sows Ovulating (gilts [4]; 200 mcg T, 136 h post-MATRIX, 16 h post-T): 0.0%
- % of Sows Ovulating (gilts [4]; 400 mcg T, 128 h post-MATRIX, 8 h post-T): 4.5%
- % of Sows Ovulating (gilts [4]; 400 mcg T, 136 h post-MATRIX, 16 h post-T): 9.1%
- % of Sows Ovulating (gilts [4]; 400 mcg T, 168 h post-MATRIX, 48 h post-T): 100.0%
- % of Sows Ovulating (gilts [4]; 400 mcg T, 176 h post-MATRIX, 56 h post-T): 100.0%
